Measured values published in patent US20020183256A1, “Cytostatic-integrin conjugates having specifically cleavable linking units” (priority 2000, published 2002).
In brackets after ≈: the same amount, converted by molar mass. Read-outs that look alike come from different tables or passages of the source. *1 amine or outer side, *2 acyl side, *3 side chain or, on linkers, in order; H or OH if unused. Where a SMILES comes first, the peptide text is derived from it. [ ]: non-standard residue; d: D form. The star is where a group is joined. Camptothecin(20R,20-O) = CC[C@]1(O*)C(=O)OCc2c1cc1n(c2=O)Cc2cc3ccccc3nc2-1; X2 = CCCNC(=O)Nc1cccc(S(=O)(=O)Nc2cccc(C(CC(=O)O)NC(=O)Nc3ccc(N*)cc3)c2)c1; X1 = CCCNC(=O)Nc1cccc(S(=O)(=O)Nc2cccc(C(CC(=O)O)N*)c2)c1; NH(1,4-C6H4)NHCS = S=C(Nc1ccc(N[*:1])cc1)[*:2]; CO = O=C([*:1])[*:2]; GABA = NCCCC(=O)O

Legend:
αvβ3 receptor = target: T1, αvβ3 receptor (Homo sapiens, UniProt P05106+P06756); test: αvβ3 binding test (echistatin displacement, WGA SPA beads); details: αvβ3 from human A375 cells
T1 construct: αvβ3 from human A375 cells was purified; endogenous in cells; host or cells: human A375 cells (receptor purified from the cells, analogous to Wong et al. 1996)
Experimental: αvβ3 from human A375 cells was purified analogously to a procedure which was described by Wong et al. (Molecular Pharmacology, 50, 529-537 (1996)). In each case, 10 μl of αvβ3 (5 ng) in TBS pH 7.6, 2 mM CaCl2, 1 mM MgCl2, 1% n-octylglucopyranoside (Sigma); 10 μl of test substance in TBS pH 7.6, 0.1% DMSO and 45 μl of TBS pH 7.6, 2 mM CaCl2, 1 mM MgCl2, 1 mM MnCl2 were incubated at room temperature for 1 h. In each case, 25 μl of WGA SPA beads (Amersham, 4 mg/ml) and 10 μl of echistatin (0.1 μCi, Amersham, chloramine-T labelled) were then added. After 16 hours at room temperature, the samples were measured in a scintillation measuring apparatus (Wallac 1450).

MMP-2 = target: T2, MMP-2 (Homo sapiens, UniProt P08253); test: Cleavage of conjugates by MMP-2 in buffer (HPLC); assay type: biochemical; details: after 6 h incubation with MMP-2; buffer pH 7.5
T2 construct: purchased Calbiochem
T2 sequence (P08253 110-660): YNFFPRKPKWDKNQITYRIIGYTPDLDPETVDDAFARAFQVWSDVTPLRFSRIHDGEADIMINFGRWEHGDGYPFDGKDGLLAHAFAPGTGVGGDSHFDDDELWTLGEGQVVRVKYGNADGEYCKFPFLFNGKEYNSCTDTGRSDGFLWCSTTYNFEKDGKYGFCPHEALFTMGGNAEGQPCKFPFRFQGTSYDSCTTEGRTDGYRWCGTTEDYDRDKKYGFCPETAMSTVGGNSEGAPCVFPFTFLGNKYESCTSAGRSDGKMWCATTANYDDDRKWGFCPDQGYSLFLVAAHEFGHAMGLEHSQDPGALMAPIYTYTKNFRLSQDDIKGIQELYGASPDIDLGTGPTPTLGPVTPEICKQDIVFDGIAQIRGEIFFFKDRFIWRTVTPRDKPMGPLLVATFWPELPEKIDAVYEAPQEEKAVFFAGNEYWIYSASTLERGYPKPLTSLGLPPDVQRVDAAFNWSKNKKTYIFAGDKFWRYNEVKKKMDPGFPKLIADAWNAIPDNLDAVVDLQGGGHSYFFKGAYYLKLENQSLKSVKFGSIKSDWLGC
Experimental: 2.5 μl MMP-2 (Calbiochem) with a specific activity of 60 μU/μl are incubated with 10 nM of the conjugates exemplified in the example series 1-25 in 1 ml of a medium consisting of 50 mM Tris-HCl pH 7.5, 0.2 M NaCl, 10 mM CaCL2*2H2O and 0.05% Brij 35. The enzyme mediated cleavage of the conjugates is detected by HPLC analysis using an RP18 (5 μM) column with 70% HClO4/water (0.4% v/v) as eluent A and acentonitrile as eluent B (UV detection at […]). The efficiency of the cleavage is assessed by comparing the peak areas of the intact conjugate (starting material) and the cleavage product (tripeptide conjugate of camptothecin) after 6 h and 24 h incubation (cf. Table 5).

[1] = system: melanoma xenograft model (MEXF 989); test: In-vivo inhibition of tumour growth using a nude mouse model; design: species or system athymic nude mice (NMRI nu/nu strain); details: for optimal T/C in % / lethality: intravenously or intraperitoneally day 1-3 and day 15-17; for optimal T/C in %: MEXF 989; for lethality: MEXF 989 nude mice; for inhibition of the tumor growth (in words): subcutaneously growing melanoma xenograft MEXF 989
Text: (§1) In all in-vivo experiments for investigating the inhibition of tumour growth, athymic nude mice (NMRI nu/nu strain) were used. The tumour was developed by serial passage in nude mice. The human origin of the tumour was confirmed by isoenzymatic and immunohistochemical methods.
(§2) The tumour was implanted subcutaneously in both flanks of nu/nu nude mice 6 to 8 weeks old. The treatment was started, depending on the doubling time, as soon as the tumours had reached a diameter of 5-7 mm. The mice were assigned to the treatment group or the control group (5 mice per group having 8-10 assessable tumours) by randomization. The individual tumours of the control group all grew progressively.
(§3) The size of the tumours was measured in two dimensions by means of a slide gauge. The tumour volume, which correlated well with the cell count, was then used for all assessments. The volume was calculated according to the formula “length×breadth×breadth/2” ([a×b^2]/2, a and b represent two diameters arranged at right angles).
(§4) The values of the relative tumour volume (RTV) were calculated for each individual tumour by dividing the tumour size on day X with the tumour size on day 0 (at the time of randomization). The average values of the RTV were then used for the further assessment.
(§5) The inhibition of the increase of the tumour volume (tumour volume of the test group/control group, T/C, in per cent) was the final measured value.
(§6) The compounds can be administered with a daily or an intermittent therapy schedule through a couple of days either by intraperitoneal, intravenious, oral or subcutaneous route.
(§7) The compounds are dissolved in PEG400/water 2:1 and administered intravenously or intraperitoneally from day 1-3 and day 15-17.

[2] = as above; design: species or system athymic nude mice (NMRI nu/nu strain); details: NMRI nu/nu, mouse, in vivo; intravenously or intraperitoneally day 1-3 and day 15-17; nude mice; read-out: MTD (dose marked MTD)
Text: as §1, §2, §3, §4, §5, §6, §7

SW 480 = test: Growth inhibition test (MTT), cytotoxic action on tumour cell lines; assay type: cell-based, human
Experimental: (§8) The human large intestine cell lines SW 480 and HT29 (ATCC No. CCL 228 and HTB38 and the mouse melanoma cell line B16F10 (CRL 6475) were grown to confluence in Roux dishes in RPMI 1640 medium with addition of 10% FCS. They were then trypsinized and taken up in RPMI plus 10% FCS to a cell count of 50,000 cells or, for B16F10, 20,000 cells per ml. 100 μl of cell suspension/well were added to a 96 microwell plate and incubated at 37° C. for 1 day in a CO2 incubator. A further 100 μl of RPMI medium and 1 μl of DMSO were then added with the test substances. The growth was checked after day 6. For this, 25 μl of MTT solution (3-(4,5-dimethylthiazol-2-yl)-2,5-diphenyltetrazolium bromide) was added to each well at a starting concentration of 5 mg/ml of H2O. The plate was incubated at 37° C. for 5 hours in a CO2 incubator. The medium was then aspirated and 100 μl of i-propanol/well were added. After shaking with 100 μl of H2O for 30 min, the extinction was measured at 595 nm using a Multiplate Reader (BIO-RAD) 3550-UV).
(§9) The cytostatic action is indicated in Table 2 as an IC50 value, in each case for the individual cell lines.

HT29 = test: as above; assay type: cell-based, human
Experimental: as §8, §9

B16F10 = test: as above; assay type: cell-based, mouse
Experimental: as §8, §9

hemopoietic stem cells = test: CSF-induced proliferation of hemopoietic stem cells (colony formation); assay type: cell-based, mice; details: Mus musculus, Bone marrow cell, 168 h; murine bone marrow cells, GM-CSF, 7 days; read-out: IC50 values of the inhibition of colony formation of hemopoietic stem cells
Experimental: Bone marrow cells are flushed out of the femur of mice. 10^5 cells are incubated in McCoy 5A medium (0.3% agar) together with recombinant murine GM-CSF (Genzyme; parent cell colony formation) and the substances (10^−4 to 100 μg/ml) at 37° C. and 7% CO2. 7 days later, the colonies […] and clusters (17-50 cells) are counted.

[3] = read-out: IC50 values of the binding to the αvβ3 receptor
[4] = IC50 values of the binding to the αvβ3 receptor
[5] = SW480, MTT after day 6, read-out: IC50 values of the cytotoxic action on tumour cell lines, SW480
[6] = HT29, MTT after day 6, read-out: IC50 values of the cytotoxic action on tumour cell lines, HT29
[7] = B16F10, MTT after day 6, read-out: IC50 values of the cytotoxic action on tumour cell lines, B16F10

T1 sequence (P06756 31-889 limits assumed): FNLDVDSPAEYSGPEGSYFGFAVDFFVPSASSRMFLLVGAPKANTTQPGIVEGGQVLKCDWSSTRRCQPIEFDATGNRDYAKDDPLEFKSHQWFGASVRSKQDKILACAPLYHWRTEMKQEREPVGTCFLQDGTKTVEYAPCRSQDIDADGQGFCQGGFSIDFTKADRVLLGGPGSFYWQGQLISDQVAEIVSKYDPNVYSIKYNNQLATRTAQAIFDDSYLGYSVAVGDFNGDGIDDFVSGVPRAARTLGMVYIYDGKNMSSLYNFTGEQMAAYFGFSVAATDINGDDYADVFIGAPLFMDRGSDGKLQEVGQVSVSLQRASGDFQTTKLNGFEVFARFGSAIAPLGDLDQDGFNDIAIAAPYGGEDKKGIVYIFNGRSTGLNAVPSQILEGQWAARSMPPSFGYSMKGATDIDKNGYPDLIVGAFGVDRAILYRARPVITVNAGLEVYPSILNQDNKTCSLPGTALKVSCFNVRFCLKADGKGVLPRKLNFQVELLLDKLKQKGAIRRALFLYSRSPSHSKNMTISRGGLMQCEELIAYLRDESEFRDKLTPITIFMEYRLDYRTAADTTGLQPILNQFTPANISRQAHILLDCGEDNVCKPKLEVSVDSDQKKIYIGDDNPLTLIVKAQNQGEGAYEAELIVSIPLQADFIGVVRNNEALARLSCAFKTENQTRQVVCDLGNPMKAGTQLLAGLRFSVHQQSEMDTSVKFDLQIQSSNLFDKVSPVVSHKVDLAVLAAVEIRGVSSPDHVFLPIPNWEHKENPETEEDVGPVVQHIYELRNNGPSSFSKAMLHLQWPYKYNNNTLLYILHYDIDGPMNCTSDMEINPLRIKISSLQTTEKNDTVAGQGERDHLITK
T1 sequence (P06756 891-1048 partner limits assumed): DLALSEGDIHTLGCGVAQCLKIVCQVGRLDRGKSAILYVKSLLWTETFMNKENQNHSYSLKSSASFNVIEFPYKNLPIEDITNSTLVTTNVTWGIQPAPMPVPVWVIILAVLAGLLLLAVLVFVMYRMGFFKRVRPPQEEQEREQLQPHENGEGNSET
T1 sequence (P05106 27-788): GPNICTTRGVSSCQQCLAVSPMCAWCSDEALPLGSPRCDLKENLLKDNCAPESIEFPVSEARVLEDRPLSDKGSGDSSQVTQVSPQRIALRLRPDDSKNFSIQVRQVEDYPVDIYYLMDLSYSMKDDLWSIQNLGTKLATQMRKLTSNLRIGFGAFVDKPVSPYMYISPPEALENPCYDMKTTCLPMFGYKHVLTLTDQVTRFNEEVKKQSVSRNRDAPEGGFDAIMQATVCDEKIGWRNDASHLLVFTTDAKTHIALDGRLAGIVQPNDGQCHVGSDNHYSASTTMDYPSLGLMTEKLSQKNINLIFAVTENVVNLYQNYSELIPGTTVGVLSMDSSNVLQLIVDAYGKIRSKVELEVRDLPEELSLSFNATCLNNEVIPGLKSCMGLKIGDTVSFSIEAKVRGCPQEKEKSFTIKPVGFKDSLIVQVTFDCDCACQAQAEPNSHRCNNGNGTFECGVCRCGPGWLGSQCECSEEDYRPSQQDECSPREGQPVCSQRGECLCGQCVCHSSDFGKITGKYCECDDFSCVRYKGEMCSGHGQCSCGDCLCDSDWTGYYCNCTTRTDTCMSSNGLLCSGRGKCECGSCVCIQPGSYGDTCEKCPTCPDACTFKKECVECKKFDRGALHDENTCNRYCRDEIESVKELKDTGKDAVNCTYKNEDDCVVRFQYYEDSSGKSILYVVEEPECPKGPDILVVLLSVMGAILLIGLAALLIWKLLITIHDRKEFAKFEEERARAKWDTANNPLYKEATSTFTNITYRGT

SMILES | IC50 (αvβ3 receptor; [3]) [nM] | MMP-2 mediated cleavage Peak area product/educt x100 (MMP-2) | optimal T/C in % ([1]; 6 mg/kg/day) [%] | lethality ([1]; 6 mg/kg/day) | optimal T/C in % ([1]; 12 mg/kg/day) [%] | lethality ([1]; 12 mg/kg/day) | inhibition of the tumor growth (in words) [1] | MTD [2] [mg/kg/day] | IC50 (SW 480; human, 6 days) [nM] | IC50 (HT29; human, 6 days) [nM] | IC50 (B16F10; mouse, 6 days) [nM] | IC50 (hemopoietic stem cells) [ng/mL] | IC50 (αvβ3 receptor; [4]) [nM] | IC50 (SW 480; [5]) [nM] | IC50 (HT29; [6]) [nM] | IC50 (B16F10; [7]) [nM]
CCCNC(=O)Nc1cccc(S(=O)(=O)Nc2cccc(C(CC(=O)O)NC(=O)Nc3ccc(NC(=S)N4CCC[C@@H]4C(=O)N[C@@H](CC(C)C)C(=O)NCC(=O)N[C@H](CC(C)C)C(=O)N[C@H](Cc4c[nH]cn4)C(=O)N[C@@H](C(=O)O[C@@]4(CC)C(=O)OCc5c4cc4n(c5=O)Cc5cc6ccccc6nc5-4)C(C)C)cc3)c2)c1 (single isomer, unassigned) [Example 2] | 25 | 18 | 17.7 | 0/5 | 7.4 | 1/5 (MTD) | effected inhibitions of the tumor growth | 12 | 100 | 180 | 500 | – | – | – | – | –
CCCNC(=O)Nc1cccc(S(=O)(=O)Nc2cccc(C(CC(=O)O)NC(=O)Nc3ccc(NC(=S)N4CCC[C@@H]4C(=O)N[C@@H](CC(C)C)C(=O)NCC(=O)N[C@H](CC(C)C)C(=O)N[C@H](CC(N)=O)C(=O)N[C@@H](C(=O)O[C@@]4(CC)C(=O)OCc5c4cc4n(c5=O)Cc5cc6ccccc6nc5-4)C(C)C)cc3)c2)c1 (single isomer, unassigned) [Example 10] | 20 | 16 | 11.4 | 0/5 (MTD) | – | – | effected inhibitions of the tumor growth | 6 | 70 | 100 | 600 | – | – | – | – | –
CCCNC(=O)Nc1cccc(S(=O)(=O)Nc2cccc(C(CC(=O)O)NC(=O)Nc3ccc(NC(=S)N4CCC[C@@H]4C(=O)N[C@@H](CC(C)C)C(=O)NCC(=O)N[C@H](CSC)C(=O)N[C@H](Cc4c[nH]cn4)C(=O)N[C@@H](C(=O)O[C@@]4(CC)C(=O)OCc5c4cc4n(c5=O)Cc5cc6ccccc6nc5-4)C(C)C)cc3)c2)c1 (single isomer, unassigned) [Example 25] | – | 9 | 19.6 | 1/5 (MTD) | – | – | effected inhibitions of the tumor growth | 6 | 60 | 80 | 250 | – | – | – | – | –
CC[C@@]1(O)C(=O)OCc2c1cc1n(c2=O)Cc2cc3ccccc3nc2-1 [Camptothecin, 20(S)-Camptothecin, reference compound] | – | – | – | – | – | – | – | – | – | – | – | 0.25 (≈ 0.718 nM) | – | – | – | –
CCCNC(=O)Nc1cccc(S(=O)(=O)Nc2cccc(C(CC(=O)O)NC(=O)Nc3ccc(NC(=S)N4CCC[C@@H]4C(=O)N[C@@H](CC(C)C)C(=O)NCC(=O)N[C@H](CC(C)C)C(=O)N[C@H](CSC)C(=O)N[C@@H](C(=O)O[C@@]4(CC)C(=O)OCc5c4cc4n(c5=O)Cc5cc6ccccc6nc5-4)C(C)C)cc3)c2)c1 (stereo partly drawn) [Example 14] ({X1-CO}-[NH(1,4-C6H4)NHCS][dP]LG[dL][dC](Me)[dV]-{Camptothecin(20R,20-O)}) | – | 5 | – | – | – | – | – | – | – | – | – | – | 70 | 50 | 60 | 400
CCCNC(=O)Nc1cccc(S(=O)(=O)Nc2cccc(C(CC(=O)O)NC(=O)Nc3ccc(NC(=O)NCCCC(=O)N4CCC[C@@H]4C(=O)N[C@@H](CC(C)C)C(=O)NCC(=O)N[C@H](CC(C)C)C(=O)N[C@H](Cc4c[nH]cn4)C(=O)N[C@@H](C(=O)O[C@@]4(CC)C(=O)OCc5c4cc4n(c5=O)Cc5cc6ccccc6nc5-4)C(C)C)cc3)c2)c1 (stereo partly drawn) [Example 17] ({X2-CO-GABA}-[dP]LG[dL][dH][dV]-{Camptothecin(20R,20-O)}) | – | 16 | – | – | – | – | – | – | – | – | – | – | 50 | 70 | 100 | 600
CCCNC(=O)Nc1cccc(S(=O)(=O)Nc2cccc(C(CC(=O)O)NC(=O)Nc3ccc(NC(=O)NCCCC(=O)N4CCC[C@@H]4C(=O)N[C@@H](CC(C)C)C(=O)NCC(=O)N[C@H](CC(C)C)C(=O)N[C@H](CC(N)=O)C(=O)N[C@@H](C(=O)O[C@@]4(CC)C(=O)OCc5c4cc4n(c5=O)Cc5cc6ccccc6nc5-4)C(C)C)cc3)c2)c1 (stereo partly drawn) [Example 18] ({X2-CO-GABA}-[dP]LG[dL][dN][dV]-{Camptothecin(20R,20-O)}) | – | 51 | – | – | – | – | – | – | – | – | – | – | 20 | 35 | 25 | 70
